Results taken from ChEMBL document CHEMBL1141148, “Antidiabetic activity of passive nonsteroidal glucocorticoid receptor modulators” (J Med Chem, 2005).
pIC50: −log10 of the molar value. Activity calls are given as the source filed them. The calls are words filed in the database; no cut-off is given here.

What was measured:
[1] = target: T1, Glucocorticoid receptor (Rattus norvegicus, UniProt P06536); assay: Inhibition of [3H]dexamethasone binding to rat glucocorticoid receptor
T1 sequence (P06536 whole entry): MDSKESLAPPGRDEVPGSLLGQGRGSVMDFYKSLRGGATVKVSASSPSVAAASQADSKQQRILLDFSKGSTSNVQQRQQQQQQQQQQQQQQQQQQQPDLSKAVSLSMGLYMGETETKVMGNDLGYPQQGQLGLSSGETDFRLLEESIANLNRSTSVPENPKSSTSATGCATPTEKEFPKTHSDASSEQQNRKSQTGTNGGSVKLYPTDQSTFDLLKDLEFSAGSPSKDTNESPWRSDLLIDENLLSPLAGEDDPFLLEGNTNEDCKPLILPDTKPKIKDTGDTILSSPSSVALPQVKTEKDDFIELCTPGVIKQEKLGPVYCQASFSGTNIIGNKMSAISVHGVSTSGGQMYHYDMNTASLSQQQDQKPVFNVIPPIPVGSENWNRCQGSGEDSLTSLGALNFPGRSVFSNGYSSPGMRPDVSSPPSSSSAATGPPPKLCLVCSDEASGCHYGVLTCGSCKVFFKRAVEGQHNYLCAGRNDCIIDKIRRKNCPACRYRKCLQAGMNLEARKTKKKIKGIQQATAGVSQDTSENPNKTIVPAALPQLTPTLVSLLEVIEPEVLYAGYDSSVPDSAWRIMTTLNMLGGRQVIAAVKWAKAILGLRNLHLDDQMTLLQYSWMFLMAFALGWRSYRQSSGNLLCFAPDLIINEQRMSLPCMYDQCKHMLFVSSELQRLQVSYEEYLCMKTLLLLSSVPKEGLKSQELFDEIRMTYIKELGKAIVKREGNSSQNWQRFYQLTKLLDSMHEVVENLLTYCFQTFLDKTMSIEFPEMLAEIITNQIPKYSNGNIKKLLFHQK

[2] = Half life period of the compound in rat hepatocytes was determined; format: ADME, cell-based, Liver, Hepatocyte
[3] = target: T2, Glucocorticoid receptor (Homo sapiens) (UniProt P04150); conditions: Huh-7
T2 sequence (whole entry): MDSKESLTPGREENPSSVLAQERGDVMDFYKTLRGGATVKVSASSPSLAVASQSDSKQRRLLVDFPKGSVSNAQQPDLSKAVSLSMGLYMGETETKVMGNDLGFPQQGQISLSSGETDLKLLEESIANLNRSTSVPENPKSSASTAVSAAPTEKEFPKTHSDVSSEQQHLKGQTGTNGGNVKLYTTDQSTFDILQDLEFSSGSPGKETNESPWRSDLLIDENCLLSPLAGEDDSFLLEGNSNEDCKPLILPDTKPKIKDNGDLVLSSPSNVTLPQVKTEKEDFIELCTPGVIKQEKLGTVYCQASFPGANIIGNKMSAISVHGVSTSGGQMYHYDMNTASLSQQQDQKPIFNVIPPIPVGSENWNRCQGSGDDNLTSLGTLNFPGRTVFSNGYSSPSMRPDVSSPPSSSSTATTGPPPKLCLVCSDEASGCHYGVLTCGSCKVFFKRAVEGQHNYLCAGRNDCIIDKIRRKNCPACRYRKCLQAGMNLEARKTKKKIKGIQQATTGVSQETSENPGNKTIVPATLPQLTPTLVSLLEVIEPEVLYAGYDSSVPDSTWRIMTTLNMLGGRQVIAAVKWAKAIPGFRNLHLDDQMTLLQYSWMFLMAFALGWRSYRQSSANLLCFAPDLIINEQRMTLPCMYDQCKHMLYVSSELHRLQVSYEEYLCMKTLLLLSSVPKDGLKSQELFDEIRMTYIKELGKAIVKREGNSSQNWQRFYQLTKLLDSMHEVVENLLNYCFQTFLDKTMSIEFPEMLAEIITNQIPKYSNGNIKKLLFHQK

[4] = target: T3, Glucocorticoid receptor (Homo sapiens, UniProt P04150); assay: Antagonistic activity against 5 nM Dexamethasone induced glucocorticoid receptor mediated alkaline phosphatase activity; format: functional
T3 sequence (P04150 whole entry): T2 sequence (whole entry)

[5] = target: T3, Glucocorticoid receptor
[6] = Half life period of the compound in rat liver microsomes was determined; format: ADME, Microsome
[7] = target: T4, Mineralocorticoid receptor (Homo sapiens, UniProt P08235); assay: Inhibition of human mineralocorticoid receptor
T4 sequence (P08235 whole entry): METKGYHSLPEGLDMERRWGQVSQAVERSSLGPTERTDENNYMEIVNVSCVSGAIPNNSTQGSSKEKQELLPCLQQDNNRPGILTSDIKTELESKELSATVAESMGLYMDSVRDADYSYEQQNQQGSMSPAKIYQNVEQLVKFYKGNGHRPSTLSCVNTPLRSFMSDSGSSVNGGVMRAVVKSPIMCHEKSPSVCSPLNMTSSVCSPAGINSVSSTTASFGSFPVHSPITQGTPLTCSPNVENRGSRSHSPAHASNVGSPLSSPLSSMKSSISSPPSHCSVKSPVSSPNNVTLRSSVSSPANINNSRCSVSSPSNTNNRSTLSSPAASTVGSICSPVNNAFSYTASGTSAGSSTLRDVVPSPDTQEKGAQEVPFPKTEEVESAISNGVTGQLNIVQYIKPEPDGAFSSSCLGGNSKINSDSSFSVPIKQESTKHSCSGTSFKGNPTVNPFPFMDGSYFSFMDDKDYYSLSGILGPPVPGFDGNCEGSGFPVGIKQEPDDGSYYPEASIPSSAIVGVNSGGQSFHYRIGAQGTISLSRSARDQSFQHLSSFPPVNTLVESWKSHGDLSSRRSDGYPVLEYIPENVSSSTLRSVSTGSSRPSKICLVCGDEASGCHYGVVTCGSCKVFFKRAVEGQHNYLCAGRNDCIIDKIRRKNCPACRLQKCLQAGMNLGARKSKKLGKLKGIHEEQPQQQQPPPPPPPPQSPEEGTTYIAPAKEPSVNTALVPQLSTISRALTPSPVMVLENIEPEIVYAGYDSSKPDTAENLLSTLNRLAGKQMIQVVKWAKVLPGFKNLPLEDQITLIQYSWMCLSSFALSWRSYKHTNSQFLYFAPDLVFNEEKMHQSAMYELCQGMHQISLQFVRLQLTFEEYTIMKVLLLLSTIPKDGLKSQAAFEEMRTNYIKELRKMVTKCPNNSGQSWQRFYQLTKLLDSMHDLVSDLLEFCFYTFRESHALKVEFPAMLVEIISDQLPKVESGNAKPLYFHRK

Structure (SMILES): Cc1c(NS(C)(=O)=O)cccc1N(Cc1ccc(Oc2ccc(F)c(OCC(=O)O)c2)cc1)Cc1ccc(F)cc1F
- pIC50 [1]: 9.70
- half-life [2]: 6.5 h
- Agonistic activity [3]: inactive
- pIC50 [4]: 6.36
- pIC50 [5]: 8.32
- half-life [6]: 4.1 h

Structure (SMILES): Cc1c(NS(C)(=O)=O)cccc1N(Cc1ccccc1)Cc1ccc(Oc2ccc(OCC(=O)O)cc2)cc1
- pIC50 [1]: 8.68
- half-life [2]: 9.9 h
- pIC50 [7]: 6.16
- half-life [6]: 4.6 h

Structure (SMILES): CC#C[C@]1(O)CC[C@H]2[C@@H]3CCC4=CC(=O)CC[C@]4(Cc4ccc(C)cc4)C3=CC[C@@]21C
- pIC50 [1]: 8.62
- half-life [2]: < 0.2 h
- pIC50 [7]: 5.20
- pIC50 [4]: 7.37
- pIC50 [5]: 8.62
- half-life [6]: 0.33 h

Structure (SMILES): Cc1c(NS(C)(=O)=O)cccc1N(Cc1ccc(Oc2ccc(Cl)c(OCC(=O)O)c2)cc1)Cc1ccc(F)cc1F
- pIC50 [1]: 8.72
- Agonistic activity [3]: inactive
- pIC50 [7]: 6.00
- pIC50 [4]: 6.30
- pIC50 [5]: 8.59

Structure (SMILES): Cc1c(NS(C)(=O)=O)cccc1N(Cc1ccccc1)Cc1ccc(Oc2cccc(OCCCC(=O)NCCCC(=O)O)c2)cc1
- pIC50 [1]: 9.00
- Agonistic activity [3]: inactive
- pIC50 [7]: 6.92
